The target of the experiment is T1, Proteasome Macropain subunit MB1 (Homo sapiens, UniProt P28074).
T1 sequence (P28074 whole entry): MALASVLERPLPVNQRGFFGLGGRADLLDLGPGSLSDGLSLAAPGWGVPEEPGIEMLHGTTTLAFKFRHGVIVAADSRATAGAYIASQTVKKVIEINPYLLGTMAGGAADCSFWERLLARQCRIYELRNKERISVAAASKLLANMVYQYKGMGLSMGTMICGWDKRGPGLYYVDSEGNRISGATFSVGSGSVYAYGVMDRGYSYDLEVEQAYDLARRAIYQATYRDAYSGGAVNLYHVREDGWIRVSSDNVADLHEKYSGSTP
The experiment in a line: Determination of Beta5 Activity: Measurement of Beta5 inhibition is performed in 384 well format based on fluorescence intensity assay.Purified human constitutive proteasome (1.25 nM) and serial diluted compounds in DMSO (range of concentrations from 30 μM to […]) or controls are incubated for 20 minutes at 25° C. in assay buffer containing 50 mM Tris pH 7.4, 0.03% SDS, 1 mM EDTA and 1% DMSO. The reaction is initiated by the addition of the fluorogenic peptide substrate, Suc-LLVY-AMC (Bachem 1-1395), at a concentration of 40 μM. After 60 minutes of incubation at 37° C., fluorescence intensity is measured at λex=350 nm and λem=450 nm with a fluorescence reader (Perkin Elmer Envision reader or equivalent).

As to `CCO[C@@H](C(=O)N[C@@H](Cc1coc2ccccc12)B(O)O)c1ccccc1`, the IC50 (commonly the concentration needed to halve the response being measured) is above 5000 nM. As to `Cc1ccc(OCCC(=O)N[C@@H](Cc2coc3ccccc23)B(O)O)cc1`, the IC50 is below 50 nM.

Source of the values: ChEMBL document CHEMBL5726955, “Substituted boronic acids and boronate esters as immunoproteasome inhibitors” (2019).
